Data from US9381142B2, “Olfactory adaptation and cross-adapting agents to reduce the perception of body odors” (Monell Chemical Senses Center, priority 2002, dated 2016).

Key:
[1] = test system: male stress-derived axillary odor; assay: Cross-adaptation of male stress-derived axillary odor (odor panel, magnitude estimation of perceived intensity); format: in vivo, human; settings: for Magnitude of Reduction of Intensity of Male Stress-Derived Odor (MSDO), Males: male stress-derived odor perceived by men; for Magnitude of Reduction of Intensity of Male Stress-Derived Odor (MSDO), Females: male stress-derived odor perceived by women
Excerpt: (§1) The procedure relies upon an individual constantly sniffing an adapting agent, such as a fragrance, and occasionally a test odorant. Perceived intensity of the test odorant is obtained by using psychophysical, magnitude-estimation procedures. These perceived intensities are obtained every 30 seconds over the test period, and are then compared with baseline perceived intensities obtained before the individual began sniffing the adapting agent. Throughout the testing we observe adaptation to the adapting agent. Results during trials with an inserted test odorant, such as the axillary odor used here, are believed to be reasonably predictive. If the perceived intensity of the test odorant decreases during the test, then the adapting agent cross-adapts the test odorant and becomes a cross-adapting agent. If the cross-adapting agent is itself not offensive, then the cross-adapting agent becomes a candidate for use in formulations in consumer products to ameliorate malodors, such as axillary odor or fecal/urine odors, and odors related to the female menstrual cycle.
(§2) Collection of secretions: Apocrine secretions obtained under stressed conditions provided the axillary odor that was used as the test odorant to evaluate the effectiveness of various adapting agents. Secretions were obtained from males (ages 20 to 60 years) and females (ages 20 to 40 years) in good health. […] Volunteers prepared their axillae for collection of apocrine secretions by refraining from deodorant use for 3 days and shaving their axillae the morning of the collection day.
(§3) Volunteers were rested in a supine position. The axillary regions were washed with isopropanol-soaked pads and injected intradermally with 1:10,000 adrenalin (in physiologic saline). This injection stimulated the secretion of apocrine gland secretions, which were collected in 10 μl pipettes, passed into 0.25 ml Eppendorf tubes, and stored on ice (or frozen for longer storage). The amount of secretion collected varied greatly with the individual subject (≦10 μl). The apocrine secretions from each volunteer were combined by consecutively washing each Eppendorf tube with 2×300 μl of doubly distilled water. This aqueous-apocrine fluid was transferred to a 5 ml round-bottomed flask for hydrolysis. X-N. Zeng, J. J. Leyden, J. G. Brand, A. I. Spielman, K. J. McGinley, G. Preti, An Investigation of Human Apocrine Gland Secretion for Axillary Odor Precursors, 18 J. Chem. Ecol. 1039-1055 (1992); X-N. Zeng, J. J. Leyden, A. I. Spielman and G. Preti Analysis of the characteristic human female axillary odors: Qualitative comparison to males. 22 J. Chem. Ecol. 237-257 (1996).
(§4) Production of odor: To produce quantities of stress-derived axillary odor for testing purposes, we hydrolyzed the apocrine secretion. The aqueous solution was refluxed for 20 min with 0.5 ml, 5% aqueous sodium hydroxide under a stream of nitrogen. The mixture was allowed to cool to room temperature, and then it was cooled in ice prior to being acidified with 6 N HCl to pH 2. The resulting axillary odor developed in the reaction mixture upon acidification was used as the test odorant. The axillary odors generated by this in vitro technique are analogous to the malodors produced by stressed individuals.
Sixteen (16) individuals (8 of each gender) served on an odor panel. Subjects ranged in age from 22 to 55 years (mean 32.7±10.6 s.d.), were not pregnant (by verbal report), and were all non-smokers. All panel members were screened for adequate use of magnitude estimation (some people have difficulties maintaining a ratio scale, i.e., when an odorant is half as strong as the previous, these people fail to provide a number that is half the previous estimate) and further trained in its use during 2-3 training sessions. All 16 subjects were tested with samples of male malodor compared to each of the potential cross-adapting agents. […]

[2] = test system: female stress-derived axillary odor; assay: Cross-adaptation of female stress-derived axillary odor (odor panel, magnitude estimation of perceived intensity); format: in vivo, human; settings: for Magnitude of Reduction of Intensity of Female Stress-Derived Odor (FSDO), Males: female stress-derived odor perceived by men; for Magnitude of Reduction of Intensity of Female Stress-Derived Odor (FSDO), Females: female stress-derived odor perceived by women
Excerpt: as §1, §2, §3, §4
A separate panel of 24 subjects (12 males and 12 females) tested samples of female stress-derived axillary odor with potential cross-adapting agents, some of which were not included in Example 1 above. Some of the subjects assessing the effectiveness of cross-adaptation of male stress-derived axillary odor were also used in the experiment with female secretions. However, these two experiments were treated as independent events. All panel members were screened for adequate use of magnitude estimation and further trained in its use during two to three training sessions. […]
Note: key: best: Best = Superior Cross-Adaptation; good: Good = Adequate Cross-Adaptation; poor: Poor = Ineffective Cross-Adaptation.

SMILES	Magnitude of Reduction of Intensity of Male Stress-Derived Odor (MSDO), Males [1]	Magnitude of Reduction of Intensity of Male Stress-Derived Odor (MSDO), Females [1]	Magnitude of Reduction of Intensity of Female Stress-Derived Odor (FSDO), Males [2]	Magnitude of Reduction of Intensity of Female Stress-Derived Odor (FSDO), Females [2]
CC(C)=CCC(C)(C)C(=O)C(C)C [CLARITONE ®, 2,4,4,7-tetramethyl-oct-6-en-3-one]	best	best	best	good
CC/C=C\CCO [Cis-3-Hexenol, cis-3-hexenol-1-ol]	good	good	best	good
CC(C)=CCCC(C)CCO (stereo not shown) [Citronellol 950, 3,7-dimethyl-6-octen-1-ol]	good	good	good	good
C=CC(C)CCCC(C)(C)O (stereo not shown) [Dihydromyrcenol, 2,6-dimethyl-7-octen-2-ol]	best	good	best	good
C=CCCC(=O)C1=CCCC(C)(C)C1 [Dynascone 10, 1-(5,5-dimethyl-1-cyclohexen-1-yl)4-penten-1-one]	best	poor	good	good
C=CCc1ccc(O)c(OC)c1 [Eugenol, 2-methoxy-1-hydroxy-4-allylbenzene]	best	poor	good	good
CC(C)=CCCC(C)CCCC(C)C=O (stereo not shown) [FARENAL ®, 2,6,10-trimethyl-9-undecenal]	poor	poor	good	poor
CC1CC(C)(c2ccccc2)OC(C)O1 (stereo not shown) [Floropal, 2,4,6-trimethyl-4-phenyl-1,3-dioxane]	good	poor	best	best
CCCCCC1C(=O)CCC1CC(=O)OC (stereo not shown) [HEDIONE ®, methyl dihydro jasmonate]	poor	poor	poor	poor
CCCCCCOC(=O)c1ccccc1O [Hexyl Salicylate, hexyl-2-hydroxybenzoate]	poor	poor	poor	good
CCCCCCC(C=O)=Cc1ccccc1 [Hexylcinnamic Aldehyde, alpha-hexylcinnamaldehyde]	good	good	good	poor
CC(=O)C1(C)CC2=C(CCCC2(C)C)CC1C (stereo not shown) [ISO E SUPER ®, octahydro-2,3,8,8-tetramethyl-2-acetonaphthone]	poor	poor	poor	poor
C=CCOC(=O)COC1CCCCC1 [Isoananat, allyl cyclohexyloxyacetate]	best	poor	good	poor
CC(=O)O[C@@H]1C[C@H](C)CC[C@H]1C(C)C [Menthyl Acetate rf, 4-menthyl-3-yl acetate]	best	poor	good	good
CC(=O)OC1CCC(C(C)(C)C)CC1 (stereo not shown) [Oryclone Special, 4-tertbutylcyclohexyl acetate]	good	poor	best	poor
OCCc1ccccc1 [Phenylethyl Alcohol, phenylethyl alcohol]	good	good	good	poor
CC(CO)CCCc1ccccc1 (stereo not shown) [Rosaphen ®, 2-methyl-5-phenylpentan-1-ol]	best	poor	good	poor
CC(C)=CC1CC(C)CCO1 (stereo not shown) [Rose Oxide hc, 4-methyl-2-(2-methyl-1-propenyl)tetrahydro-2H-pyran]	poor	good	good	good
CCC(=CCC1CC=C(C)C1(C)C)CO (stereo not shown) [Sandranol ®, 2-ethyl-4-(2,2,3-trimethyl-3-cyclopenten-1-yl)-2-buten-1-ol]	good	poor	good	good
CC1=CC(C)C(C=O)CC1 (stereo not shown) [Vertocitral, 2,4-dimethyl-3-cyclohexene-1-carboxaldehyde]	good	best	best	best
O=C1CCCCCCCCCCCCCCO1 [cpd Supra, oxacyclohexadecan-2-one]	poor	poor	good	good
CC=CC(=O)C1C(C)=CCCC1(C)C (stereo not drawn) [α-Damascone, 1-(2,6,6-trimethyl-2-cyclohexen-1-yl)-2-buten-1-one]	poor	poor	poor	good
